Assays:
[1] = Solubility of curcumin and quercetin in phosphate buffer pH 6.8; format: physicochemical; details: 0.2 µm filter
Experimental: Following the same protocol, the same amount of quercetin (150 mg) is solubilized in phosphate buffer pH 6.8. […] Solubilized quercetin: […] of the initial dose.

[2] = 42 mg or 84 mg of oral curcumin; even under metabolised forms; cited from earlier work

| Compound | Solubilized quercetin ([1]; 900 ml phosphate buffer pH 6.8, 1 h at 37°C) | Solubilized curcumin ([1]; 84 mg curcumin in 900 ml phosphate buffer pH 6.8, 1 hour at 37°C) | oral bioavailability of low dosages of curcumin [2] |
| --- | --- | --- | --- |
| O=c1c(O)c(-c2ccc(O)c(O)c2)oc2cc(O)cc(O)c12 [quercetin, Quercetin] | 4 % of the initial dose | – | – |
| COc1cc(C=CC(=O)CC(=O)C=Cc2ccc(O)c(OC)c2)ccc1O [curcumin, 1,7-bis(4-hydroxyl-3-methoxyphenyl)-1,6-heptadiene-3,5-dione] | – | 0.004 % of the initial dose | not bioavailable at all |

From EP2229940B1, “Pharmaceutical composition presenting anti-inflammatory and anti-histaminic properties” (Bioxtract S.A., priority 2009, dated 2010)
